According to US5486516A, “Furopyrimidine derivatives” (DowElanco, priority 1993, dated 1996):
Like-named read-outs stand apart in the source and are kept apart here.

What was measured:
[1] = tested on: Pyricularia oryzae (rice blast); test: whole plant or invertebrate; format: in vivo; conditions: foliar, read-out: RICE BLAST control rating
[2] = tested on: Southern corn rootworm (Diabrotica undecimpuctata howardi Barber); test: Mite/insect screen, corn rootworm; format: in vivo; conditions: Diabrotica, soil, read-out: CRW results (percent mortality)
Procedure, shortened: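 Five 2-3 instar larvae per cup were placed on sandy soil (15 g, with presoaked corn seed) treated 6–12 h earlier with 1 mL test solution, an emulsified acetone/alcohol formulation diluted in water. Cups kept at 23° C; mortality and phytotoxicity assessed as percent after standard exposures.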

[3] = tested on: southern armyworm (Spodopetra eridania Cramer); test: Mite/insect screen, Southern armyworm; format: in vivo; conditions: Spodoptera eridania, read-out: SAW results (percent mortality)
Procedure, shortened: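 Southern armyworm larvae placed in Petri dishes with two excised squash leaves that had been sprayed to runoff (10 psi) with emulsified compound and air-dried for 1 h. Mortality in percent recorded after a standard exposure period; formulation acetone/alcohol plus Toximul R and S, water-diluted.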

[4] = tested on: Twospotted spider mites (Tetranychus urticae Koch); test: Mite/insect screen, twospotted spider mites; format: in vivo; conditions: Tetranychus urticae, read-out: SM results (percent mortality)
Procedure, shortened: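 Percent mortality, along with phytotoxicity, was read after standard exposure periods. Beforehand, mites established on both surfaces of squash cotyledons received a runoff spray (10 psi) of water-diluted compound formulated in acetone/alcohol with sulfonate/nonionic emulsifiers.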

[5] = tested on: melon aphids (Aphis gossvpii Glover); test: Mite/insect screen, melon aphids; format: in vivo; conditions: Aphis, read-out: MA results (percent mortality)
Procedure, shortened: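 Percent mortality of melon aphids was assessed after standard exposure periods. Infested squash cotyledons had been sprayed on both leaf surfaces until runoff at 10 psi with water-diluted test solutions. Compounds were formulated in acetone/alcohol (50:50) containing emulsifiers.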

[6] = tested on: Puccinia recondita tritici (leaf rust); test: Plant pathology screen (Test 1), leaf rust on wheat; conditions: in Triticum aestivum, foliar, read-out: LEAF RUST control rating
Experimental: (§1) This screen was used to evaluate the efficacy of the present compounds against a variety of different organisms that cause plant diseases.
(§2) The test compounds were formulated for application by dissolving 50 mg of the compound into 1.25 ml of solvent. The solvent was prepared by mixing 50 ml of "Tween 20" (polyoxyethylene (20) sorbitan monolaurate emulsifier) with 475 ml of acetone and 475 ml of ethanol. The solvent/compound solution was diluted to 125 ml with deionized water. The resulting formulation contains 400 ppm test chemical. Lower concentrations were obtained by serial dilution with the solvent-surfactant mixture.
The formulated test compounds were applied by foliar spray.
(§3) The formulated technical compounds were sprayed on all foliar surfaces of the host plants (or cut berry) to past run-off. Single pots of each host plant were placed on raised, revolving pedestals in a fume hood. Test solutions were sprayed on all foliar surfaces. All treatments were allowed to dry and the plants were inoculated with the appropriate pathogens within 2-4 hours.
(§4) The effectiveness of test compounds in controlling disease was rated using the following scale.

[7] = tested on: Pseudoperonospora cubensis (downy mildew); test: Plant pathology screen (Test 1), downy mildew on squash; conditions: foliar, read-out: DOWN MDEW control rating
[8] = tested on: Erysiphe graminis tritici (powdery mildew); test: Plant pathology screen (Test 1), powdery mildew on wheat; conditions: Blumeria graminis, in Triticum aestivum, foliar, read-out: POWD MDEW control rating
[9] = tested on: Botrytis cinerea (gray mold); test: Plant pathology screen (Test 1), gray mold on grape berries; conditions: read-out: GRAY MOLD control rating
Experimental: as §1, §2
The formulated test compounds were applied by foliar spray. The following plant pathogens and their corresponding plants were employed.
as §3, §4

SMILES: Cc1oc2ncnc(Oc3ccc(F)cc3)c2c1C [Example 49, 5,6-dimethyl-4-(4-fluorophenoxy)furo[2,3-d]pyrimidine]
- pest or weed control at 400 µg/mL [1]: 0 to 19%
- mortality at 12 ppm ([2]; CRW rate 12.00 ppm): 0%
- mortality at 24 ppm ([2]; CRW rate 24.00 ppm): 0%
- mortality at 200 ppm ([3]; rate 200 ppm, sprayed leaves): 80%
- mortality at 400 ppm ([3]; rate 400 ppm, sprayed leaves): 0%
- mortality at 200 ppm ([4]; rate 200 ppm, sprayed leaves): 0%
- mortality at 400 ppm ([4]; rate 400 ppm, sprayed leaves): 0%
- mortality at 200 ppm ([5]; rate 200 ppm, sprayed leaves): 0%
- mortality at 400 ppm ([5]; rate 400 ppm, sprayed leaves): 0%
- pest or weed control at 400 µg/mL [6]: 90 to 100%
- pest or weed control at 400 µg/mL [7]: 0 to 19%
- pest or weed control at 400 µg/mL [8]: 90 to 100%
- pest or weed control at 400 µg/mL [9]: 0 to 19%

SMILES: COc1ccc(CCOc2ncnc3oc(C)c(C)c23)cc1 [Example 52, 4-[2-(4-methoxyphenyl)ethoxy]-5,6-dimethylfuro[2,3-d]pyrimidine]
- pest or weed control at 400 µg/mL [1]: 90 to 100%
- mortality at 12 ppm ([2]; CRW rate 12.00 ppm): 0%
- mortality at 24 ppm ([2]; CRW rate 24.00 ppm): 0%
- mortality at 200 ppm ([3]; rate 200 ppm, sprayed leaves): 0%
- mortality at 400 ppm ([3]; rate 400 ppm, sprayed leaves): 0%
- mortality at 200 ppm ([4]; rate 200 ppm, sprayed leaves): 0%
- mortality at 400 ppm ([4]; rate 400 ppm, sprayed leaves): 0%
- mortality at 200 ppm ([5]; rate 200 ppm, sprayed leaves): 80%
- mortality at 400 ppm ([5]; rate 400 ppm, sprayed leaves): 100%
- pest or weed control at 400 µg/mL [6]: 90 to 100%
- pest or weed control at 400 µg/mL [7]: 90 to 100%
- pest or weed control at 400 µg/mL [8]: 90 to 100%
- pest or weed control at 400 µg/mL [9]: 0 to 19%

SMILES: CCCCCCOc1ccc(CC(CNc2ncnc3oc(C)c(C)c23)c2cccc3ccccc23)cc1 (stereo not drawn) [Example 71, 5,6-dimethyl-N-[3-[4-(n-hexyloxy)phenyl]-2-(1-naphthyl)propyl]furo[2,3-d]pyrimidin-4-amine]
- pest or weed control at 400 µg/mL [1]: 0 to 19%
- mortality at 24 ppm ([2]; CRW rate 24.00 ppm): 0%
- mortality at 400 ppm ([3]; rate 400 ppm, sprayed leaves): 0%
- mortality at 400 ppm ([4]; rate 400 ppm, sprayed leaves): 0%
- mortality at 400 ppm ([5]; rate 400 ppm, sprayed leaves): 0%
- pest or weed control at 400 µg/mL [6]: 0 to 19%
- pest or weed control at 400 µg/mL [7]: 0 to 19%
- pest or weed control at 400 µg/mL [8]: 0 to 19%
- pest or weed control at 400 µg/mL [9]: 0 to 19%

SMILES: COc1ccc(CCNc2ncnc3occc23)cc1 [Example 15, N-[2-(4-methyloxyphenyl)ethyl]furo[2,3-d]pyrimidin-4-amine]
- pest or weed control at 400 µg/mL [1]: 20 to 89%
- mortality at 12 ppm ([2]; CRW rate 12.00 ppm): 0%
- mortality at 24 ppm ([2]; CRW rate 24.00 ppm): 0%
- mortality at 200 ppm ([3]; rate 200 ppm, sprayed leaves): 0%
- mortality at 400 ppm ([3]; rate 400 ppm, sprayed leaves): 0%
- mortality at 200 ppm ([4]; rate 200 ppm, sprayed leaves): 0%
- mortality at 400 ppm ([4]; rate 400 ppm, sprayed leaves): 0%
- mortality at 200 ppm ([5]; rate 200 ppm, sprayed leaves): 0%
- mortality at 400 ppm ([5]; rate 400 ppm, sprayed leaves): 0%
- pest or weed control at 400 µg/mL [6]: 90 to 100%
- pest or weed control at 400 µg/mL [7]: 90 to 100%
- pest or weed control at 400 µg/mL [8]: 20 to 89%
- pest or weed control at 400 µg/mL [9]: 0 to 19%

SMILES: Cc1oc2ncnc(NCCc3ccc4ccccc4c3)c2c1C [Example 22, 5,6-dimethyl-N-[2-(2-naphthyl)ethyl]furo[2,3-d]pyrimidin-4-amine]
- pest or weed control at 400 µg/mL [1]: 0 to 19%
- mortality at 12 ppm ([2]; CRW rate 12.00 ppm): 0%
- mortality at 24 ppm ([2]; CRW rate 24.00 ppm): 0%
- mortality at 200 ppm ([3]; rate 200 ppm, sprayed leaves): 0%
- mortality at 400 ppm ([3]; rate 400 ppm, sprayed leaves): 0%
- mortality at 200 ppm ([4]; rate 200 ppm, sprayed leaves): 0%
- mortality at 400 ppm ([4]; rate 400 ppm, sprayed leaves): 0%
- mortality at 200 ppm ([5]; rate 200 ppm, sprayed leaves): 0%
- mortality at 400 ppm ([5]; rate 400 ppm, sprayed leaves): 0%
- pest or weed control at 400 µg/mL [6]: 0 to 19%
- pest or weed control at 400 µg/mL [7]: 0 to 19%
- pest or weed control at 400 µg/mL [8]: 0 to 19%
- pest or weed control at 400 µg/mL [9]: 0 to 19%

SMILES: Cc1ccc(Oc2ncnc3oc(C)c(C)c23)cc1 [Example 62, 5,6-dimethyl-4-(4-methylphenoxy)furo[2,3-d]pyrimidine]
- pest or weed control at 400 µg/mL [1]: 0 to 19%
- mortality at 12 ppm ([2]; CRW rate 12.00 ppm): 0%
- mortality at 24 ppm ([2]; CRW rate 24.00 ppm): 0%
- mortality at 200 ppm ([3]; rate 200 ppm, sprayed leaves): 0%
- mortality at 400 ppm ([3]; rate 400 ppm, sprayed leaves): 0%
- mortality at 200 ppm ([4]; rate 200 ppm, sprayed leaves): 0%
- mortality at 400 ppm ([4]; rate 400 ppm, sprayed leaves): 0%
- mortality at 200 ppm ([5]; rate 200 ppm, sprayed leaves): 0%
- mortality at 400 ppm ([5]; rate 400 ppm, sprayed leaves): 0%
- pest or weed control at 400 µg/mL [6]: 0 to 19%
- pest or weed control at 400 µg/mL [7]: 0 to 19%
- pest or weed control at 400 µg/mL [8]: 90 to 100%
- pest or weed control at 400 µg/mL [9]: 0 to 19%

SMILES: Cc1oc2ncnc(OC3CN4CCC3CC4)c2c1C (stereo not drawn) [Example 17, 5,6-dimethyl-4-(1-azabicyclo[2.2.2]oct-3-yloxy)furo[2,3-d]pyrimidine]
- pest or weed control at 400 µg/mL [1]: 0 to 19%
- mortality at 12 ppm [2]: 0%
- mortality at 24 ppm [2]: 0%
- mortality at 200 ppm [3]: 0%
- mortality at 400 ppm [3]: 0%
- mortality at 200 ppm [4]: 0%
- mortality at 400 ppm [4]: 0%
- mortality at 200 ppm [5]: 0%
- mortality at 400 ppm [5]: 0%
- pest or weed control at 400 µg/mL [6]: 0 to 19%
- pest or weed control at 400 µg/mL [7]: 0 to 19%
- pest or weed control at 400 µg/mL [8]: 0 to 19%
- pest or weed control at 400 µg/mL [9]: 0 to 19%
